The text below walks through data of paper PMC5638581 (Molecular Biology of the Cell, 2017).

In data set [1] the target is TorsinA (TorA) with LAP1 luminal domain (LAP1^LD) (Homo sapiens, UniProt O14656). As to conditions: 3 μM TorA, 3 μM LAP1 LD, 2 mM ATP, 37 °C, 1 h.
Data set [2] has as its target TorsinA (TorA) with LULL1 luminal domain (LULL1^LD) (Homo sapiens, UniProt O14656). The note with it: 3 μM TorA, 3 μM LULL1 LD, 2 mM ATP, 37 °C, 1 h.
Data set [3] deals with the molecule itself. The data set is described as follows: SEC + other: negative stain electron microscopy.

Chain of TorsinA (TorA) with LAP1 luminal domain (LAP1^LD) (Q5JTV8 356-583 partner, one chain of several): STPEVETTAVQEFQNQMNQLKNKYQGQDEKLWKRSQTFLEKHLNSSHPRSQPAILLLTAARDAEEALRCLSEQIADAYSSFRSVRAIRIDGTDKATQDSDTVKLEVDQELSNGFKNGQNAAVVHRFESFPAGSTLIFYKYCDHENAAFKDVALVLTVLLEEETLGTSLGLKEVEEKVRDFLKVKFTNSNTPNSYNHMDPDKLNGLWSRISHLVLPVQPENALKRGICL
Chain of TorsinA (TorA) with LULL1 luminal domain (LULL1^LD) (Q8NFQ8 236-470 partner, one chain of several): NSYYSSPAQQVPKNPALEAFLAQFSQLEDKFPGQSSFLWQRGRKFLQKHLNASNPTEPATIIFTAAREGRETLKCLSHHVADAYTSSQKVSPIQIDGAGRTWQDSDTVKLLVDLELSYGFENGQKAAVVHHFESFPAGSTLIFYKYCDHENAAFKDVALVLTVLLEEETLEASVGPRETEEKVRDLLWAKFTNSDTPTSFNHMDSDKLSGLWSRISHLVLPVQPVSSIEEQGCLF

`Nc1ncnc2c1ncn2[C@@H]1O[C@H](COP(=O)(O)OP(=O)(O)OP(=O)(O)O)[C@@H](O)[C@H]1O` [ATP]: the “malachite green phosphate release (ATPase)” value in data set [1] was “ATPase activity was measured in the absence and presence of LAP1^LD and LULL1^LD”; in data set [2] it was “ATPase activity was measured in the absence and presence of LAP1^LD and LULL1^LD”.

B1: TorsinA wild type, C-terminally FLAG-tagged, full length (enzyme, human, UniProt O14656 21-332, looked up)
chain: VEPISLGLALAGVLTGYIYPRLYCLFAECCGQKRSLSREALQKDLDDNLFGQHLAKKIILNAVFGFINNPKPKKPLTLSLHGWTGTGKNFVSKIIAENIYEGGLNSDYVHLFVATLHFPHASNITLYKDQLQLWIRGNVSACARSIFIFDEMDKMHAGLIDAIKPFLDYYDLVDGVSYQKAMFIFLSNAGAERITDVALDFWRSGKQREDIKLKDIEHALSVSVFNNKNSGFWHSSLIDRNLIDYFVPFLPLEYKHLKMCIRVEMQSRGYEIDEDIVSRVAEEMTFFPKEERVFSDKGCKTVFTKLDYYYDD
Consider B1, for which, in data set [3], the stoichiometry N (usually a count of units in the complex or per binding partner) is roughly 6.
